This note sets out measurements from the NIST ThermoML archive (doi:10.1016/j.jct.2016.09.038).

Numbers after ± are expanded uncertainties.

Series [1] can be described thus: Molar enthalpy of transition or fusion. The settings on record: Crystal; DSC.
The conditions of series [2]: Crystal; DTA.

Consider `CC(C)(C)[C@H](O)[C@H](Cc1ccc(Cl)cc1)n1cncn1` [2S,3S-Paclobutrazol], for which the “Molar enthalpy of transition or fusion” value in series [1] amounted to 9.05 ± 0.263 kcal/mol. Also, the Normal melting temperature in series [2] worked out at 160.66 ± 1.1 °C.
